Data from ChEMBL document CHEMBL5705902, “Role of G Protein-Coupled Receptor Kinases 2 and 3 in μ-Opioid Receptor Desensitization and Internalization” (Mol Pharmacol, 2015).
Active and inactive are the calls of the source. No cut-off for these calls is given here.

Columns and labels:
[1] = biological target: Mu-type opioid receptor (Rattus norvegicus) (UniProt P33535); test: Inhibition of MOPr desensitization in wistar rat LC neuron cells assessed as reduction in the DAMGO induced desensitization incubated for 15 mins in the presence of GSK650394; assay type: functional, cell-based
Chain of Mu-type opioid receptor (Rattus norvegicus) (P33535 whole entry): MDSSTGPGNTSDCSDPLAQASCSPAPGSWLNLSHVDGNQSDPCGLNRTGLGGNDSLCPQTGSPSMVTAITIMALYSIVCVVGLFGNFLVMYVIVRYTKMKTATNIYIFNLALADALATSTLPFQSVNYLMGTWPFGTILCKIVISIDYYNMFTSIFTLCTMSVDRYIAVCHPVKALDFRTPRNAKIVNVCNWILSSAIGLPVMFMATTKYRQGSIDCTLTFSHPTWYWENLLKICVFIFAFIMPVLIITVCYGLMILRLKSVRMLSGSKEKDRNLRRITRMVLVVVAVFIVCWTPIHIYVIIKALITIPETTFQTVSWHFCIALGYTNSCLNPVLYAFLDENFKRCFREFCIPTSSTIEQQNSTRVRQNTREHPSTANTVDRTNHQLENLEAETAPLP

[2] = biological target: Mu-type opioid receptor (Rattus norvegicus) (UniProt P33535); test: Inhibition of MOPr desensitization in wistar rat LC neuron cells assessed as reduction in the DAMGO induced desensitization incubated for 15 mins in the presence of Y-27632; assay type: functional, cell-based

Structure (SMILES)	inhibition [1]	inhibition [2]
C[C@@H](N)[C@H]1CC[C@H](C(=O)Nc2ccncc2)CC1	inactive	–
O=C(O)c1ccc(-c2c[nH]c3ncc(-c4ccccc4)cc23)cc1C1CCCC1	–	inactive
